# Source: patent publication US20180008542A1, “PHARMACEUTICAL COMPOSITION” (priority 2003, published 2018)
# Experiments:
# [1] = Laser diffraction particle size analysis (Mastersizer 2000); assay type: physicochemical; conditions: continuous flow precipitator, into isopropanol; coated samples 10% protein loading
# Description: Laser diffraction particle size analysis was carried out on bioactive coated particles using a Mastersizer 2000. Briefly, enough PCMC was added to the sample holder of the Mastersizer 2000 containing 60 ml of 2-propanol to ensure a laser obscuration of between 10 and 20%. Measurements were then taken using a previously set up Standard Operating Procedure. d(0.1)(μm)=10% of the particles are below this particle size d(0.5)(μm)=50% of the particles are above and below this particle size d(0.9)(μm)=90% of the particles are below this particle size. Span=d(0.9)−d(0.1)/d(0.5)
# Span gives a good indication of population homogeneity.
# resistance arteries [2] = test: Ex-vivo insulin bioactivity, wire myograph; assay type: cell-based, Wistar rats; conditions: pre-constriction with thromboxane mimetic [U44169]
# Description: A pressure myograph which allowed luminal application of drug provided initial measures of sensitivity. In the pressure system, arteries mounted on opposing glass cannula (outer dimension 80 μm) were gradually pressurized from <5 mmHg to 40 mmHg over 15 mins and held for 15 mins more before starting the assay. Responses were measured using proprietary video analysis software (MyoView). […] The arteries were then exposed to increasing concentrations of insulin either directly into the bath (wire) or by gradual infusion directly into the lumen via a fetal microcannulae inserted to the tip of the glass mounting cannula, at a constant pressure (pressure). Following pre-constriction with thromboxane mimetic [U44169] the insulin-mediated vasorelaxation profile is typical for insulin and exerts its effect mainly via the activation of nitric oxide synthase and the subsequent release of endothelial nitric oxide.
# [3] = Zeta potential (Malvern Zetasizer, suspension in acetonitrile); assay type: physicochemical; conditions: for Zeta potential (sign): dilute suspension in acetonitrile; for Zeta potential (mV): microcrystals in non-aqueous medium, precipitation pH 5.59-7.02 as given per sample
# Text: The core microcrystal and protein coating that are characteristic of protein coated coated microcrystals arise from a single continuous self-assembly process. In order to assess whether electrostatic binding of the bioactive molecule to pre-formed microcrystals might be important in the mechanism of this process it was of interest to measure the surface potential of the microcrystals in a non-aqueous medium. The liquid layer surrounding a charged particle exists as two parts; an inner region (Stern layer) where the ions are strongly bound and an outer (diffuse) region where they are less firmly associated. Within the diffuse layer there is a notional boundary inside which the ions and particles form a stable entity. When a particle moves (e.g. due to gravity), ions within the boundary move too. […] The potential at this boundary (surface of hydrodynamic shear) is the zeta potential. The sign and magnitude of the zeta potential depends on the surface charge of the particle with for example a negative zeta potential indicating a particle with an overall negative charge. A Malvern Zetasizer that employs laser Doppler velocimetry was used to measure the sign and approximate magnitude of the Zeta potential of microcrystals produced by precipitation of various core materials at fixed pH. The measurements were made on pre-prepared microcrystals or protein coated microcrystals suspended as dilute suspension in acetonitrile. A polystyrene latex was used to calibrate the machine. […] If electrostatic binding is important to the mechanism of formation it would be expected that only biomolecules with an overall positive charge would be expected to form a coating on these negatively charged materials. The charge on a protein is a function of pH. It will be negative at pH values above the pI and positive at a pH below the pI.
# [4] = above 80% RH
# Description: The uptake of water by bioactive molecule coated particles produced by the present co-precipitation process and of the core material precipitated alone under a controlled humidified environment was carried out by Dynamic Vapor Sorption (DVS) using Dynamic Vapor Sorption 1000 (Surface Measurement Systems).
# The Experimental set-up was as follows.
# The DVS used a 2 full-cycle experimental Special Automatic Operation (SAO) protocol that included an initial drying stage at 0% Relative Humidity (RH). […] This was proceeded by an identical desorption cycle down to 0% RH. This cycle was repeated. The following criteria was used to control the DVS stage change: either the rate of change of the increase in mass i.e. dm/dt dropped to 0.002, or the maximum stage time was 2000 minutes.
# Prior to introduction of the sample, the balance was tared and the instrument was allowed to equilibrate until a stable baseline was observed. The particles were then loaded and the initial weight recorded, followed by switching on the SAO. The experiment ran until the completion of the SAO.
# resistance arteries [5] = test: Ex-vivo insulin bioactivity, pressure myograph; assay type: cell-based, Wistar rats; conditions: mean of 3 (SD)
# Description: Insulin bioactivity assays were carried out on resistance arteries ([…]) isolated from 12 week old male Wistar rats studied in heated (37° C.) and gassed (95% O2/5% CO2) physiological salt solution (PSS) to achieve a pH of 7.4. A pressure myograph which allowed luminal application of drug provided initial measures of sensitivity. In the pressure system, arteries mounted on opposing glass cannula (outer dimension 80 μm) were gradually pressurized from <5 mmHg to 40 mmHg over 15 mins and held for 15 mins more before starting the assay. Responses were measured using proprietary video analysis software (MyoView). The pressure myograph is able to detect the vasodilatory effect of insulin at very low concentrations (1×10^−10 M).
# [6] = HPLC analysis of insulin after reconstitution; conditions: retained in the same aqueous solution used for co-precipitation
Molecule,Span [1],d(0.5)/microns [1] [microns],insulin mediated vasorelaxation (resistance arteries [2]),Zeta potential (sign) [3],Zeta potential (mV) [3] [mV],water uptake [4],insulin mediated relaxation to noradrenaline pre-constriction (100=100% constriction) (resistance arteries [5]; Log M −9),insulin mediated relaxation to noradrenaline pre-constriction (100=100% constriction) (resistance arteries [5]; Log M −10),insulin mediated relaxation to noradrenaline pre-constriction (100=100% constriction) (resistance arteries [5]; Log M −11),time to significant changes [6]
"CC(C)C(N)C(=O)O (racemic) [D,L-valine]",1.32,21.810,no bioactivity,negative,−19.6,–,–,–,–,–
"NCC(=O)O [Glycine, glycine]",1.72,58.370,–,negative,−49.7,start to take up appreciable amounts of water,–,–,–,–
NC(=O)CC[C@H](N)C(=O)O [L-glutamine],1.88,36.373,–,negative,−54.8,–,–,–,–,–
Commercial Insulin: USP bovine pancreas insulin control,–,–,–,–,–,–,65 (23) %,84 (7) %,100 (0) %,less than 30 minutes
